Laboratory results as given in patent publication US5554620A, “Substituted 6,11-ethano-6,11-dihydrobenzo[b] quinolizinium salts and compositions and methods of use thereof” (Sterling Winthrop Inc., priority 1994, dated 1996).

The molecules below were run against PCP receptor (assay: [3H]TCP radioreceptor assay (binding to PCP recognition sites)). Conditions: [3H]TCP approx. 1 nM, rat brain membranes; mean of at least two determinations.
Design: species or system rat (male Sprague-Dawley, whole brain)
Procedure: [^3 H]TCP Radioreceptor Assay
[^3 H]TCP binding to PCP recognition sites was performed as described by Vignon et al. Brain Research 1983, 280, 194-197. Male Sprague-Dawley rats were sacrificed by decapitation, and whole brains were homogenized in 10 volumes (wt/vol) of cold Tris-HCl buffer (50 mM, pH 7.7) using a Brinkmann Polytron (setting 6, 30 sec). The homogenate was centrifuged at 40,000×g for 10 min at 4° C. The supernatant was decanted, and the homogenization and centrifugation steps were repeated twice as described above. Following this, the pellet was resuspended in Tris-HCl (5 mM, pH 7.7) at a tissue concentration of 0.5-0.75 g/mL, and one mL aliquots were frozen at -70° C. until use. The binding characteristics for PCP recognition sites were not altered by the freezing of membrane suspensions.
On the day of the assay, membrane aliquots were thawed, resuspended in fresh 5 mM Tris-HCl buffer at a tissue concentration of 1 mg/mL, and stored on ice until use. Each assay tube contained 100 μl of [^3 H]TCP at a final concentration of approximately 1 nM, 100 μL of various concentrations of the compounds of interest, 500 μL of the tissue suspension and 300 μL of buffer to a final assay volume of 1 mL and a final protein concentration of 0.5 mg/tube. Non-specific binding was defined by addition of a final concentration of 100 μM PCP to blank tubes. All tubes were incubated at room temperature for 25 min before termination of the reaction by rapid filtration over Whatman GF/B glass fiber filters that had been presoaked in a solution of 0.5% polyethylenimine for at least 1 hr prior to use. Filters were washed with three 4 mL volumes of cold Tris buffer. Following addition of scintillation cocktail, the amount of bound radioactivity was determined by liquid scintillation spectrometry using a Beckman LS 5000TA liquid scintillation counter with an efficiency for tritium of approximately 55%. Inhibition constants (Ki values) were calculated using the EBDA/LIGAND program (McPherson, J. Pharmacol. Meth. 1985, 14, 213-228), purchased from ElsevierBiosoft, Inc. Results are reported as the Ki values (in nM) which are expressed as the mean of at least two separate determinations; or as a percent (%) inhibition of binding at 10 μM.

Row | Structure (SMILES) | Ki [µM]
1 | [O-][Cl+3]([O-])([O-])[O-].c1ccc2c(c1)C1CC(c3cocn3)(c3cocn3)C2c2cccc[n+]21 (stereo not shown) [53(g), 6,11-ethano-12,12-di(4-oxazolyl)-6,11-dihydrobenzo[b]quinolizinium perchlorate] | 0.093
2 | Cc1cc[n+]2c(c1)C1c3ccccc3C2CC1(c1ccccc1)c1ccccc1.[O-][Cl+3]([O-])([O-])[O-] (stereo not shown) [54(E), 6,11-ethano-12,12-diphenyl-2-methyl-6,11-dihydrobenzo[b]quinolizinium perchlorate] | 0.052
3 | Clc1cccc(C2(c3cccc(Cl)c3)CC3c4ccccc4C2c2cccc[n+]23)c1 (stereo not shown) [55(b), 6,11-ethano-12,12-di(m-chlorophenyl)-6,11-dihydrobenzo[b]quinolizinium chloride] | 0.104
4 | CCCCC12CC(c3ccccc3)(c3ccccc3)C(c3ccccc31)c1cccc[n+]12.[O-][Cl+3]([O-])([O-])[O-] (stereo not shown) [59(c), 6,11-ethano-12,12-diphenyl-6-butyl-6,11-dihydrobenzo[b]quinolizinium perchlorate] | 3.91
5 | Brc1ccc(Br)c2c1C1CC(c3ccoc3)(c3ccoc3)C2c2cccc[n+]21.[O-][Cl+3]([O-])([O-])[O-] (stereo not shown) [60(e), 6,11-ethano-12,12-di(3-furyl)-7,10-dibromo-6,11-dihydrobenzo[b]quinolizinium perchlorate] | 0.345
6 | c1ccc2c(c1)C1CC(c3nccs3)(c3nccs3)C2c2cccc[n+]21 (stereo not shown) [61(c), 6,11-ethao-12,12-di(2-thiazolyl)-6,11-dihydrobenzo[b]quinolizinium perchlorate] | 0.017
7 | [O-][Cl+3]([O-])([O-])[O-].c1ccc2c(c1)C1CC(c3cncs3)(c3cncs3)C2c2cccc[n+]21 (stereo not shown) [62(c), 6,11-ethano-12,12-di(5-thiazolyl)-6,11-dihydrobenzo[b]quinolizinium perchlorate] | 0.12
8 | COc1cccc2c1C1c3cccc[n+]3C2CC1(c1ccoc1)c1ccoc1 (stereo not shown) [66(g), 6,11-ethano-12,12-di(3-furanyl)-10-methoxy-6,11-dihydrobenzo[b]quinolizinium chloride] | 0.006
9 | COc1cccc(C2(c3cccc(OC)n3)CC3c4ccccc4C2c2cccc[n+]23)n1.[O-][Cl+3]([O-])([O-])[O-] (stereo not shown) [67(e), 6,11-ethano-12,12-di-(6-methoxypyridin-2-yl)-6,11-dihydrobenzo[b]quinolizinium perchlorate] | 0.08
10 | c1ccc2c(c1)C1CC(c3cnn[nH]3)(c3cnn[nH]3)C2c2cccc[n+]21 (stereo not shown) [70(F), 6,11-ethano-12.12-di-(5-1,2,3-triazoyl)6,11-dihydrobenzo[b]quinolizinium Chloride] | 3.83
11 | c1ccc2c(c1)C1CC(c3cc[nH]c3)(c3cc[nH]c3)C2c2cccc[n+]21 (stereo not shown) [71(F), 6,11-ethano-12,12-di(3-pyrrolyl)-6,11-dihydrobenzo[b]quinolizinium chloride] | 0.0031
12 | [O-][Cl+3]([O-])([O-])[O-].c1ccc(C2(c3ccccc3)CC3c4ccccc4C2c2cccc[n+]23)cc1 (stereo not shown) [111(a), 6,11-Ethano-12,12-diphenyl-6,11-dihydrobenzo[b]quinolizinium perchlorate] | 0.00607
13 | [O-][Cl+3]([O-])([O-])[O-].c1ccc(C2(N3CCOCC3)CC3c4ccccc4C2c2cccc[n+]23)cc1 (stereo not shown) [111(b), 6,11-Ethano-12-phenyl-12-(4-morpholinyl)-6,11-dihydrobenzo[b]quinolizinium perchlorate] | 0.0378
14 | Cn1ccc(C2(c3ccn(C)n3)CC3c4ccccc4C2c2cccc[n+]23)n1 (stereo not shown) [158(f), 6,11-ethano-12,12-di[3-(1-methylpyrazolyl)]-6,11-dihydrobenzo[b]quinolizinium chloride] | 0.632
15 | COc1ncccc1C1(c2cccnc2OC)CC2c3ccccc3C1c1cccc[n+]12.[O-][Cl+3]([O-])([O-])[O-] (stereo not shown) [160(d), 6,11-ethano-12,12-di-(2-methoxypyridin-3-yl)-6,11-dihydrobenzo[b]quinolizinium perchlorate] | 0.453
16 | c1ccc2c(c1)C1CC(c3cn[nH]c3)(c3cn[nH]c3)C2c2cccc[n+]21 (stereo not shown) [161(d), 6,11-ethano-12,12-di(pyrazol-4-yl)]-6,11-dihydrobenzo[b]quinolizinium perchlorate] | 3.68

Row | Structure (SMILES) | Ki [µM]
17 | C=C1C2c3ccccc3C(c3cccc[n+]32)C1(c1ccoc1)c1ccoc1 (stereo not shown) [162(d), 6,11-ethano-12,12-di(3-furyl)-13-methylene-6,11-dihydrobenzo[b]quinolizinium hexafluorophosphate] | 0.00231
18 | COc1ccc[n+]2c1C1c3ccccc3C2CC1(c1ccoc1)c1ccoc1 (stereo not shown) [164(e), 6,11-ethano-12,12-di(3-furyl)-1-methoxy-6,11-dihydrobenzo[b]quinolizinium chloride] | 0.0189
19 | CCOC(=O)C=CC(=O)Oc1cccc2c1C1c3cccc[n+]3C2CC1(c1ccoc1)c1ccoc1 (stereo not shown) [167(c), 6,11-ethano-12,12-di(3-furyl)-10-(OC(O)CH=CHCO2 Et)-6,11-dihydrobenzo[b]quinolizinium perchlorate] | 0.00768
20 | c1ccc2c(c1)C1CC(c3ncc[nH]3)(c3ncc[nH]3)C2c2cccc[n+]21 (stereo not shown) [173(e), 6,11-ethano-12,12-di(imidazol-2-yl)-6,11-dihydrobenzo[b]quinolizinium chloride] | 1.67
21 | Oc1cccc2c1C1c3cccc[n+]3C2CC1(c1cc[nH]n1)c1cc[nH]n1 (stereo not shown) [175(b)] | 0.119
22 | COC(=O)C12CC(c3ccoc3)(c3ccoc3)C(c3ccccc31)c1cccc[n+]12 (stereo not shown) [176(d), 6,11-ethano-12,12-di(3-furyl)-6-methoxycarbonyl-6,11-dihydrobenzo[b]quinolizinium chloride] | 0.0394
23 | CCOC(=O)CC(C)(C)C(=O)Oc1cccc2c1C1c3cccc[n+]3C2CC1(c1ccoc1)c1ccoc1 (stereo not shown) [178(d), 6,11-ethano-12,12-di(3-furyl)-10-(OC(O)C(CH3)2 CH2 CO2Et)-6,11-dihydrobenzo[b]quinolizinium chloride] | 1.43
24 | COc1cccc2c1C1c3cccc[n+]3C2CC1(c1cc[nH]n1)c1cc[nH]n1 (stereo not shown) [179(b), 6,11-ethano-12,12-di(pyrazolyl-3-yl]-10-methoxy-6,11-dihydrobenzo[b]quinolizinium chloride] | 0.259
25 | c1ccc2c(c1)C1CC(c3ccoc3)(c3ccoc3)C2c2c3ccccc3cc[n+]21 (stereo not shown) [180(g), 14,14-di(3-furyl)-8,13-ethano-8,13-dihydrodibenzo[a,g]quinolizinium chloride] | 0.0199
26 | OCc1cccc2c1C1c3cccc[n+]3C2CC1(c1ccoc1)c1ccoc1.[O-][Cl+3]([O-])([O-])[O-] (stereo not shown) [182(e), 6,11-ethano-12,12-di(3-furyl)-10-hydroxymethyl-6,11-dihydrobenzo[b]quinolizinium perchlorate] | 0.159
27 | c1cc[n+]2c(c1)C1c3c(ccc4c3OCO4)C2CC1(c1ccoc1)c1ccoc1 (stereo not shown) [183(c), 6,11-ethano-12,12-di(3-furyl)-9,10-methylenedioxy-6,11-dihydrobenzo[b]quinolizinium chloride] | 0.00272
28 | Brc1cc2cn[nH]c2c2cc3cccc[n+]3cc12 [186(g), 7-bromo-9,10-pyrazolo-benzo[b]quinolizinium hexafluorophosphate] | 0.122
29 | COc1c(Cl)ccc2c1C1c3cccc[n+]3C2CC1(c1ccoc1)c1ccoc1 (stereo not shown) [187(g), 6,11-ethano-12,12-di(3-furyl)-9-chloro-10-methoxy-6,11-dihydrobenzo[b]quinolizinium chloride] | 0.0637
30 | Oc1c(Cl)ccc2c1C1c3cccc[n+]3C2CC1(c1ccoc1)c1ccoc1 (stereo not shown) [188(c), 6,11-ethano-12,12-di(3-furyl)-9-chloro-10-hydroxy-6,11-dihydrobenzo]b]quinolizinium chloride] | 0.0236
31 | Clc1ccc2c(c1)C1c3cccc[n+]3C2CC1(c1ccn[nH]1)c1ccn[nH]1 (stereo not shown) [189(b), 6,11-ethano-12,12-di-(pyrazol-5-yl)]-9-chloro-6,11-dihydrobenzo[b]quinolizinium perchlorate] | 0.0225

Same assay, conditions: inhibition of [3H]TCP binding at 10 μM

Row | Structure (SMILES) | [3H]TCP percent inhibition @ 10 μm [%]
32 | FC(F)(F)c1cccc(C2(c3cccc(C(F)(F)F)c3)CC3c4ccccc4C2c2cccc[n+]23)c1.[Cl-] (stereo not shown) [46(c), 6,11-ethano-12,12-di(m-trifluoromethylphenyl)-6,11-dihydrobenzo[b]quinolizinium chloride] | 31
33 | [Cl-].c1ccc2c(c1)C1CC(c3ccncc3)(c3ccncc3)C2c2cccc[n+]21 (stereo not shown) [49(E), 6,11-ethano-12,12-di(4-pyridyl)-6,11-dihydrobenzo[b]quinolizinium chloride] | 54
34 | c1ccc2c(c1)C1CC(c3nc[nH]n3)(c3nc[nH]n3)C2c2cccc[n+]21 (stereo not shown) [159(h), 6,11-ethano-12,12-di-[3-(1,2,4-triazolyl)]-6,11-dihydrobenzo[b]quinolizinium chloride] | 31
